Test systems include BT-549 breast; K-562 leukemia; LOX IMVI melanoma; OVCAR-4 ovarian; SF-539 CNS; SK-MEL-2 melanoma; SN12C renal; TK-10 renal; U251 CNS.
What all share (test): growth of human tumour cells (NCI), 48 h

Each structure is given as a SMILES string.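 48-hour exposure; five concentrations; linearly interpolated endpoints. TGI marks complete inhibition of growth.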

For `Cc1ccc(S(=O)(=O)N2CCN(CCN(C)CCN3CCN(S(=O)(=O)c4ccc(C)cc4)CC3)CC2)cc1`, the TGI with BT-549 breast is 30.6 µM; in the test with K-562 leukemia, 35.2 µM; in the test with LOX IMVI melanoma, 33 µM; in the test on OVCAR-4 ovarian, 43.7 µM; in the test on SF-539 CNS it was 30.3 µM; in the test with SK-MEL-2 melanoma, 33.6 µM. Also, the TGI was 37.6 µM in the test with SN12C renal, 30.2 µM in the test with TK-10 renal and 31.6 µM in the test on U251 CNS.

For `CCOC(=O)C(Cc1ccccc1)(Cc1ccc(O)cn1)NC(=O)c1ccccc1` (configuration not stated), the TGI in the test with BT-549 breast was 81 µM; in the test with K-562 leukemia, above 100 µM; in the test on LOX IMVI melanoma, 45.2 µM; with OVCAR-4 ovarian, 97.7 µM; in the test on SF-539 CNS it was 60.6 µM; with SK-MEL-2 melanoma, 43.9 µM. Besides, the TGI was above 100 µM in the test on TK-10 renal and 57.7 µM in the test with U251 CNS.

With `O=C1NC(N/N=C\c2ccccc2)=N/C1=C/c1ccc(Cl)cc1`, the TGI in the test on BT-549 breast was 49.5 µM; with K-562 leukemia, above 100 µM; with LOX IMVI melanoma, 67.9 µM; with OVCAR-4 ovarian it was 31.4 µM; in the test on SF-539 CNS, 53.8 µM; in the test on SK-MEL-2 melanoma, 82.9 µM. In addition, the figures for the TGI in the test on SN12C renal, in the test on TK-10 renal and in the test with U251 CNS were 54.6 µM, above 100 µM and 76.9 µM, respectively.

As to `CSc1ncc2c(n1)-c1ccccc1OC2N1CCCC1` (configuration not stated), the TGI with BT-549 breast, in the test on K-562 leukemia, in the test with LOX IMVI melanoma, in the test on OVCAR-4 ovarian, with SF-539 CNS and with SK-MEL-2 melanoma was above 100 µM each time. Further, the TGI in the test on SN12C renal, with TK-10 renal and in the test on U251 CNS was above 100 µM in each case.

Regarding `O=C1C=CC(=O)c2ncccc21`, the TGI in the test on BT-549 breast was 15.5 µM; in the test on K-562 leukemia it was above 24.7 µM; with LOX IMVI melanoma, 6.32 µM; in the test with OVCAR-4 ovarian, 11.4 µM; in the test on SF-539 CNS, 22.6 µM; in the test on SK-MEL-2 melanoma, 28.2 µM. The TGI with SN12C renal turned out to be 16 µM; with TK-10 renal, 17.4 µM; with U251 CNS it was 17 µM.

As for `Cc1cc(S(=O)(=O)Nc2nnc3cc(C(F)(F)F)cc(C)n23)c(S)cc1Cl`, the TGI was above 100 µM in the test with BT-549 breast; above 100 µM in the test with K-562 leukemia; above 100 µM with LOX IMVI melanoma; above 100 µM with OVCAR-4 ovarian; above 96.6 µM in the test on SF-539 CNS; above 100 µM in the test on SK-MEL-2 melanoma. Moreover, the TGI with SN12C renal is above 100 µM; with TK-10 renal, above 100 µM; in the test on U251 CNS, above 81.5 µM.

As to `COC(OC)C(O)C1OC=CC1n1cnc2c(N)ncnc21` (configuration not stated), the TGI with BT-549 breast, in the test on K-562 leukemia, in the test on LOX IMVI melanoma, in the test with OVCAR-4 ovarian, in the test with SF-539 CNS and in the test on SK-MEL-2 melanoma was above 100 µM in each case. Besides, the TGI in the test on SN12C renal, with TK-10 renal and in the test with U251 CNS was above 100 µM each time.

As to `NC(N)=N/N=C/c1nc2sccn2c1[N+](=O)[O-]`, the TGI in the test on BT-549 breast was above 100 µM; with K-562 leukemia, 85.8 µM; in the test with LOX IMVI melanoma, 56.1 µM; with OVCAR-4 ovarian it was 33.6 µM; in the test with SF-539 CNS it was above 100 µM; in the test with SK-MEL-2 melanoma it was 41.8 µM. Also, the TGI in the test on SN12C renal, with TK-10 renal and in the test on U251 CNS was above 100 µM in each case.

As to `CC(C)(C)N1Cc2ccccc2/C(=C/Sc2ccccc2)C1=O`, the TGI in the test with BT-549 breast is 20.1 µM; with K-562 leukemia it was above 100 µM; with LOX IMVI melanoma, 11.3 µM; in the test with OVCAR-4 ovarian it was 19.6 µM; with SF-539 CNS, 24.3 µM; with SK-MEL-2 melanoma it was 31.4 µM. Also, the results for the TGI in the test on SN12C renal, in the test on TK-10 renal and in the test with U251 CNS were 23.8 µM, 34.8 µM and 27.3 µM, respectively.

As to `COC(=O)C1(C(=O)OC)N=C(C)OC1C(C)C` (configuration not stated), the TGI in the test on BT-549 breast, in the test on K-562 leukemia, in the test on LOX IMVI melanoma, with OVCAR-4 ovarian, with SK-MEL-2 melanoma and with SN12C renal was above 100 µM each time. The TGI in the test with TK-10 renal and in the test with U251 CNS was above 100 µM throughout.

Take `CN1CC(c2ccccc2)N(CCCCN2CC(c3ccccc3)N(C)CC2c2ccccc2)CC1c1ccccc1` (configuration not stated): the TGI with BT-549 breast is above 100 µM; in the test with K-562 leukemia, above 100 µM; in the test on LOX IMVI melanoma, 39.1 µM; in the test on OVCAR-4 ovarian, above 100 µM; in the test with SF-539 CNS it was above 100 µM; with SK-MEL-2 melanoma, 81.2 µM. Moreover, the TGI with SN12C renal and in the test on TK-10 renal was above 100 µM throughout.

Turning to `COC1/C=C/C(C)C(C(C)C(OC)C(C)CCC(=O)C(C)C(CCC(=O)O)OC)OC(=O)/C=C/C=C(\C)CC(OC)CC2=CC(=O)O[C@@H](C(C)C(OC)CC(OC)/C=C/C(C)C(OC)C1)[C@H]2O` (some centres not stated), the TGI was 2.85 µM in the test with BT-549 breast; above 5 µM in the test with K-562 leukemia; above 3.67 µM in the test on LOX IMVI melanoma; above 5 µM in the test on OVCAR-4 ovarian; above 5 µM in the test with SF-539 CNS; 1.89 µM with SK-MEL-2 melanoma. In addition, the TGI with SN12C renal is above 5 µM; with TK-10 renal, above 5 µM; in the test on U251 CNS, 1.39 µM.

Take `COC(=O)C(COC(=O)/C=C/c1ccc(OC(C)=O)c(OC(C)=O)c1)OC(=O)/C=C/c1ccc(OC(C)=O)c(OC(C)=O)c1` (configuration not stated): the TGI in the test with BT-549 breast came to 33.5 µM; with K-562 leukemia, 31.2 µM; with LOX IMVI melanoma, 23.4 µM; in the test on OVCAR-4 ovarian it was 35.1 µM; with SF-539 CNS it was 24.2 µM; in the test on SK-MEL-2 melanoma, 26 µM. Besides, the TGI in the test on SN12C renal was 27.8 µM; in the test on TK-10 renal it was 32.8 µM; in the test with U251 CNS, 20.4 µM.

Turning to `O=C1OS2(OCc3cccc4cccc2c34)c2ccccc21` (configuration not stated), the TGI in the test with BT-549 breast, in the test with K-562 leukemia, in the test on LOX IMVI melanoma, in the test with OVCAR-4 ovarian, in the test on SF-539 CNS and in the test with SK-MEL-2 melanoma was above 100 µM in each case. In addition, the TGI with SN12C renal, with TK-10 renal and in the test with U251 CNS was above 100 µM throughout.

For the compound `OC1OC(c2ccco2)C(F)(F)C(F)(F)C1(F)F` (configuration not stated), the TGI in the test on BT-549 breast, in the test on K-562 leukemia, in the test with LOX IMVI melanoma, in the test with OVCAR-4 ovarian, in the test on SF-539 CNS and in the test with SK-MEL-2 melanoma was above 100 µM in each case. For the same compound, the TGI in the test with SN12C renal, in the test with TK-10 renal and with U251 CNS was above 100 µM throughout.

Source of the values: PubChem BioAssay (NCI).
